From paper PMC12680756, “Reflectometric-based sensor arrays for the screening of kinase-inhibitor interactions and kinetic determination” (Analytical and Bioanalytical Chemistry, 2025)

Tests used:
FAK [1] = target: T1, FAK (Homo sapiens, UniProt Q05397); assay: Competitive MST assay, labeled STP-FAK complex titrated with another inhibitor; format: binding; conditions: labeled STP (40 µM) in complex with FAK (40 nM)
Procedure: Microscale thermophoresis was performed with the instrument Monolith NT.115, capillaries and MO.Control Software from Nanotemper Technologies, Munich, Germany. For each experiment, 16 capillaries were filled with a sample solution. […] The fluorescence of a specific area of each capillary was measured prior and during the thermophoresis experiment. For a better comparability, the fluorescence intensity obtained during the measurement was normalized to the fluorescence in each capillary recorded prior to the start of the experiment.

PKA in the protein mix = assay: 1-lambda reflectometry inhibitor screening on spotted sensor array, protein mix; format: binding, bovine; conditions: for order of binding affinity by color change of the spots (naked eye): protein mix 50 µg/mL, image after association, Fig. 5a; for increase of the average relative signal: protein mix, sensograms Fig. 5c, immobilized inhibitor spot
Procedure: (§1) • Manual spotting: the inhibitor dissolved in DMSO (1 mg/mL) was dropped to the measurement region on the transducer by pipetting. The immobilization process was as specified above. • Automatic spotting: the inhibitor dissolved in DMSO (1 mg/mL) was dropped to the measurement region on the transducer via the ceramic pin of the spotter. The droplets were dried under ambient conditions, and the process was repeated twice. After drying the last droplet, the transducer was prepared for measurements or stored at 4°C.
(§2) Screening was performed with 1-lambda reflectometry and transducers on which different inhibitors were spotted in the measurement area. The measurement protocols were the same as for the single assays.
One region per row was set as the reference ROI void of inhibitor.

FAK [2] = target: T1, FAK; assay: 1-lambda reflectometry inhibitor screening on spotted sensor array, FAK; format: binding; conditions: sensograms Fig. 5c; for order regarding the strength of the association: FAK as kinase sample
Procedure: as §1, §2

[3] = target: protein mix containing cAMP-dependent protein kinase (PKA) (Bos taurus, UniProt P00517); assay: 1-lambda reflectometry single assays, protein mix flushed over immobilized inhibitor, kinetic evaluation; conditions: read-out: dissociation rate constant kd

T1 sequence (Q05397 410-689, species assumed): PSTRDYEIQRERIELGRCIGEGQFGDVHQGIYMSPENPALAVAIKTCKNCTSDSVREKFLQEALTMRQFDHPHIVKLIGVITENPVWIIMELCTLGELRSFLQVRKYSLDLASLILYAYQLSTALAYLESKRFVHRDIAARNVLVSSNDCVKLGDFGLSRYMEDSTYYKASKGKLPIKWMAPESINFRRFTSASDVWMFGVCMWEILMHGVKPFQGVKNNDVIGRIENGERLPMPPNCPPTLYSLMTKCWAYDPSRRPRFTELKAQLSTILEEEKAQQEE

SMILES	shape of dose-response curve in competitive MST (FAK [1])	order of binding affinity by color change of the spots (naked eye) (PKA in the protein mix)	order regarding the strength of the association (FAK [2])	increase of the average relative signal (PKA in the protein mix)	koff [3]	increase of the relative signal (FAK [2]; FAK, immobilized inhibitor spot)
Cl.Cn1cc(C2=C(c3c4n(c5ccccc35)CCC(CN)C4)C(=O)NC2=O)c2ccccc21 (centres unmarked) [BisX, Bisindolylmaleimide X]	the slope was inversed compared to the one of the direct assays					
CN[C@@H]1C[C@H]2O[C@@](C)([C@@H]1OC)n1c3ccccc3c3c4c(c5c6ccccc6n2c5c31)C(=O)NC4 [STP, Staurosporine]		imatinib > fragment2 > fragment1 > STP				
O=S(=O)(c1cccc2cnccc12)N1CCCNCC1 [fasudil]		strongest color change	STP > imatinib > fasudil > fragment2 > fragment1	1.7%		
COc1ccc(-c2cc(N)[nH]n2)cc1Cl [fragment1]		imatinib > fragment2 > fragment1 > STP	STP > imatinib > fasudil > fragment2 > fragment1		0.007 s⁻¹	
Nc1ncnc(Nc2ccc(F)cc2)n1 [fragment2]		imatinib > fragment2 > fragment1 > STP	STP > imatinib > fasudil > fragment2 > fragment1			
Cc1ccc(NC(=O)c2ccc(CN3CCN(C)CC3)cc2)cc1Nc1nccc(-c2cccnc2)n1 [imatinib]		imatinib > fragment2 > fragment1 > STP	STP > imatinib > fasudil > fragment2 > fragment1	0.84%		0.13%
